Data taken from patent US20090304797A1, “Process for the Preparation of Micronized Valsartan” (priority 2006, published 2009).

Assay: Particle size distribution
Assay type: physicochemical
Conditions: crystallized using ethyl acetate as taught in U.S. Pat. No. 5,399,578, after passing through 30 mesh sieve

Compound	Particle size distribution d10 [μ]	Particle size distribution d50 [μ]	Particle size distribution d90 [μ]
CCCCC(=O)N(Cc1ccc(-c2ccccc2-c2nnn[nH]2)cc1)[C@H](C(=O)O)C(C)C [Valsartan, N-(1-Oxopentyl)-N-[[2′-(1H-tetrazol-5-yl)[1,1′-biphenyl]-4-yl]methyl]-L-valine]	5.039	77.29	383.55

Same assay, conditions: solid obtained by the process of the example

Compound	Particle size distribution d10 [μ]	Particle size distribution d50 [μ]	Particle size distribution d90 [μ]
CCCCC(=O)N(Cc1ccc(-c2ccccc2-c2nnn[nH]2)cc1)[C@H](C(=O)O)C(C)C [Example 1, Valsartan]	1.906	4.134	7.554
CCCCC(=O)N(Cc1ccc(-c2ccccc2-c2nnn[nH]2)cc1)[C@H](C(=O)O)C(C)C [Example 2, Valsartan]	1.686	4.420	8.684
CCCCC(=O)N(Cc1ccc(-c2ccccc2-c2nnn[nH]2)cc1)[C@H](C(=O)O)C(C)C [Example 3, Valsartan]	1.5421	3.850	7.869
CCCCC(=O)N(Cc1ccc(-c2ccccc2-c2nnn[nH]2)cc1)[C@H](C(=O)O)C(C)C [Example 4, Valsartan]	2.011	4.636	8.611
CCCCC(=O)N(Cc1ccc(-c2ccccc2-c2nnn[nH]2)cc1)[C@H](C(=O)O)C(C)C [Example 5 A, Valsartan]	1.869	18.401	202
CCCCC(=O)N(Cc1ccc(-c2ccccc2-c2nnn[nH]2)cc1)[C@H](C(=O)O)C(C)C [Example 5 B, Valsartan]	0.71	2.687	8.42
